# Reference: patent EP0804408B1, “NOVEL 4-SUBSTITUTED 2,6-DI-TERT-BUTYLPHENOL COMPOUNDS, PHARMACEUTICAL COMPOSITIONS CONTAINING SAME AND PREPARATION METHOD THEREFOR” (priority 1994, dated 1996)
# System: VIH-1/LAI
# Assay: Inactivation of HIV-1: infectious titre before/after treatment, titrated on MT4 cells (p24 antigen ELISA, day +10)
# Type: cell-based
# From the text: Afin d'évaluer l'efficacité d'AVF1, il a été procédé à la comparaison des titres infectieux de suspensions virales avant et après traitement par trois concentrations de AVF1 pendant trois temps de contact. A partir des résultats expérimentaux, il a été défini pour chaque concentration et chaque temps de contact testés, un facteur de […] du titre infectieux du VIH-1. Ce facteur de réduction exprimé en log 10 correspond au rapport du titre infectieux du virus non traité et du titre infectieux du virus traité par AVF1.
# L'étude a été réalisée en deux étapes : • Traitement du VIH-1/LAI par trois concentrations d'AVF1 pendant 5, 30 et 60 minutes. • Evaluation des titres infectieux des échantillons obtenus avant et après traitement par AVF1 sur cellules MT4.
# Le virus a été dilué au 1/10ème dans chacune des solutions de AVF1 (solution diluée à 2%, 1%, et 0,5%).
# Le virus a été maintenu dans chacune de ces solutions pendant 5 minutes, 30 minutes et 60 minutes, à température ambiante puis immédiatement dilué en tampon NTE. Après dilution en tampn NTE, les échantillons ont été ultracentrifugés afin d'éliminer AVF1 et éviter ainsi sa toxicité sur les cellules MT4 utilisées pour le titrage du virus. Cette étape d'ultracentrifugation permet aussi de concentrer les particules virales résiduelles. Après centrifugation, chaque culot a été repris dans 1 ml de milieu de culture, filtré sur un filtre de 0,45 µm aliquoté et stocké à -80°C.
# La même expérience a été réalisée deux fois.
# La méthode de titrage du VIH-1 sur cellules MT4 est basée sur la détection d'une production virale par les cellules inoculées maintenues 10 jours en culture, mesurée par le dosage de l'antigène p24 VIH-1 dans le surnageant de culture.
# Brièvement, les cellules MT4 sont inoculées avec des dilutions en série de virus non traité (contrôle positif) ou avec les échantillons expérimentaux (virus traités par AVF1).
# Le VIH infecte les cellules, se multiplie, puis est libéré dans le surnageant de culture par bourgeonnement à la surface de la cellule. Afin de détecter la présence du virus, les surnageants de culture sont récupérés tous les 3 ou 4 jours et testés au jour +10 après l'infection quant à la présence de l'antigène p24 VIH-1.
# La détection de l'antigène p24 VIH-1 est réalisée à l'aide d'une technique ELISA sandwich mettant en oeuvre la trousse ELAVIA AgI commercialisée par Diagnostic Pasteur, qui permet la détection de 50 pg d'antigène p24 par millilitre de surnageant.
# Le principe de cette méthode est brièvement le suivant : l'antigène p24 libéré après la lyse des particules virales présentes dans le surnageant est complexé à des anticorps anti-VIH-1 immobilisés dans les puits des microplaques. L'antigène est alors révélé par anticorps polyclonaux anti-VIH-1 biotinylés, reconnus eux-mêmes par un conjugué streptavidine péroxydase. La présence de ce complexe est révélée par une réaction enzymatique après addition du substrat (H2O2) et du chromogène (OPD). Le produit de cette réaction est coloré et peut donc être détecté par mesure de la densité optique à 492 nm. La quantité de produit formé au cours de la réaction enzymatique est directement proportionnelle à la quantité d'antigène présente dans l'échantillon testé.
# Les échantillons à tester ont été dilués ou non dans du milieu de culture. 1 ml d'échantillon non dilué, et 0,4 ml des dilutions suivantes ont été inoculés sur un culot de 1,2 10^6 cellules MT4. Après l'adsoption virale pendant 1 heure à 37°C, l'innoculum viral a été éliminé et les cellules lavées 3 fois en milieu de culture. Les cellules ont alors été resuspendues dans 4 ml de milieu de culture, distribuées dans 4 puits de plaque 24 puits et incubées à 37°C en présence de 5% de CO2.
# Tous les 3 ou 4 jours, les surnageants de culture contenus dans chaque puits ont été prélevés et stockés à -80°C puis testés quant à la présence d'antigène p24 VIH-1.
# Le titre infectieux est exprimé en "tissue Culture Infectious Dose 50" par millilitre d'échantillon (TCID 50/ml). […]
# [1] = AVF1 0,5%, 5 minutes, 1ère expérience
# [2] = AVF1 0,5%, 5 minutes, 2ème expérience
# [3] = AVF1 0,5%, 30 minutes, 1ère expérience
# [4] = AVF1 0,5%, 30 minutes, 2ème expérience
# [5] = AVF1 0,5%, 60 minutes, 1ère expérience
# [6] = AVF1 0,5%, 60 minutes, 2ème expérience
# [7] = AVF1 1%, 5 minutes, 1ère expérience
# [8] = AVF1 1%, 5 minutes, 2ème expérience
# [9] = AVF1 1%, 30 minutes, 1ère expérience
# [10] = AVF1 1%, 30 minutes, 2ème expérience
# [11] = AVF1 1%, 60 minutes, 1ère expérience
# [12] = AVF1 1%, 60 minutes, 2ème expérience
# [13] = AVF1 2%, 5 minutes, 1ère expérience
# [14] = AVF1 2%, 5 minutes, 2ème expérience
# [15] = AVF1 2%, 30 minutes, 1ère expérience
# [16] = AVF1 2%, 30 minutes, 2ème expérience
# [17] = AVF1 2%, 60 minutes, 1ère expérience
# [18] = AVF1 2%, 60 minutes, 2ème expérience
structure (smiles),measurement,setting,value
"CC(C)(C)c1cc(C(=O)OCCOCCOCCOCCOCCOCCOCCOCCO)cc(C(C)(C)C)c1O [AVF1, 3,5-di-t-butyl-4-hydroxybenzoate d'octaoxyéthylèneglycol]",Facteur de réduction Log TCID50/ml,[1],"> 6,9 Log TCID50/ml"
same,Titre TCID 50/ml,[1],< 4 TCID 50/ml
same,Facteur de réduction Log TCID50/ml,[2],"> 6,9 Log TCID50/ml"
same,Titre TCID 50/ml,[2],< 4 TCID 50/ml
same,Facteur de réduction Log TCID50/ml,[3],"> 6,9 Log TCID50/ml"
same,Titre TCID 50/ml,[3],< 4 TCID 50/ml
same,Facteur de réduction Log TCID50/ml,[4],"> 6,9 Log TCID50/ml"
same,Titre TCID 50/ml,[4],< 4 TCID 50/ml
same,Facteur de réduction Log TCID50/ml,[5],"> 6,9 Log TCID50/ml"
same,Titre TCID 50/ml,[5],< 4 TCID 50/ml
same,Facteur de réduction Log TCID50/ml,[6],"> 6,9 Log TCID50/ml"
same,Titre TCID 50/ml,[6],< 4 TCID 50/ml
same,Facteur de réduction Log TCID50/ml,[7],"> 6,9 Log TCID50/ml"
same,Titre TCID 50/ml,[7],< 4 TCID 50/ml
same,Facteur de réduction Log TCID50/ml,[8],"> 6,9 Log TCID50/ml"
same,Titre TCID 50/ml,[8],< 4 TCID 50/ml
same,Facteur de réduction Log TCID50/ml,[9],"> 6,9 Log TCID50/ml"
same,Titre TCID 50/ml,[9],< 4 TCID 50/ml
same,Facteur de réduction Log TCID50/ml,[10],"> 6,9 Log TCID50/ml"
same,Titre TCID 50/ml,[10],< 4 TCID 50/ml
same,Facteur de réduction Log TCID50/ml,[11],"> 6,9 Log TCID50/ml"
same,Titre TCID 50/ml,[11],< 4 TCID 50/ml
same,Facteur de réduction Log TCID50/ml,[12],"> 6,9 Log TCID50/ml"
same,Titre TCID 50/ml,[12],< 4 TCID 50/ml
same,Facteur de réduction Log TCID50/ml,[13],"> 6,9 Log TCID50/ml"
same,Titre TCID 50/ml,[13],< 4 TCID 50/ml
same,Facteur de réduction Log TCID50/ml,[14],"> 6,9 Log TCID50/ml"
same,Titre TCID 50/ml,[14],< 4 TCID 50/ml
same,Facteur de réduction Log TCID50/ml,[15],"> 6,9 Log TCID50/ml"
same,Titre TCID 50/ml,[15],< 4 TCID 50/ml
same,Facteur de réduction Log TCID50/ml,[16],"> 6,9 Log TCID50/ml"
same,Titre TCID 50/ml,[16],< 4 TCID 50/ml
same,Facteur de réduction Log TCID50/ml,[17],"> 6,9 Log TCID50/ml"
same,Titre TCID 50/ml,[17],< 4 TCID 50/ml
same,Facteur de réduction Log TCID50/ml,[18],"> 6,9 Log TCID50/ml"
same,Titre TCID 50/ml,[18],< 4 TCID 50/ml
same,réduction du pouvoir infectieux,"solution à 0,5% de AVF1, 5 minutes","≥ 6,9 log TCID50/ml"
same,particules infectieuses VIH-1 détectées,"whatever the concentration (2%, 1%, 0,5%) and contact time (5, 30, 60 minutes)",Aucune particule infectieuse VIH-1 n'a été détectée
